No end group written: not given here. *: point of attachment. Palmitoyl = CCCCCCCCCCCCCCCC(=O)*; Oleyl = CCCCCCCC/C=C\CCCCCCCC*
Legend:
Type in all cases: cell-based, human
ERK = ERK phosphorylation by Pal-YIGSR peptide, immunoblotting in Hs27 skin fibroblasts; details: FIG. 8
Procedure: Hs27 skin fibroblasts, which are under culture, were treated with the peptide derivatives prepared in Examples 1 and 2, and Comparative Example 2, and an amount of expressed type I collagen in the cells were measured by an immunoblotting method. The Hs27 skin fibroblasts were cultured by using DMEM medium, (Lonza, USA), to which 10% FBS was added (Lonza, USA), under the condition of 95% of humidity, 5% CO2, and 37° C. Hs27 skin fibroblasts were treated with each concentration of the peptide (0, 2, 25, 50 and 100 μM) for 24 hours or 100 μM of the peptide for each period of time (0, 0.5, 6, 12 and 24 hours). Then, the treated cells were sonicated in the lysis buffer (150 mM NaCl, 1% Triton X-100, 10 mM Tris, 1 mM EDTA, pH 7.4). Thereafter, supernatant was isolated through centrifugation, and quantification was performed through Bradford assay. The same amount of a protein was mixed in a 5× sample buffer and the mixture was heated for 5 minutes at 95° C. The resultant was electrophoresed on 6-15% concentration gradient SDS-Polyacrylamide gel electrophoresis (SDS-PAGE) and then adsorbed to a nitrocellulose membrane. […]

Hs27 skin fibroblasts = experiment: Cell growth by crystal violet assay; details: 72 hours
Procedure: The Hs27 skin fibroblasts were seeded on a 24-well culture plate (40,000 cells per each), and cultured under 5% CO2, and 37° C. for 24 hours to allow cells to be attached to a bottom of the culture plate. Next day, a medium was changed to a medium including FBS. Then, cells were cultured again for 24 hours and treated with the peptide derivatives of Examples 1 and 2, and Comparative Examples 1 and 2 followed by further culture of 72 hours. Then, cell growth was measured through crystal violet assay.
Specifically, the medium in each well was removed, and […] of 0.1% crystal violet solution was added to each well followed by 5 minutes of staining. Then, the crystal violet solution was removed, and wells were washed with deionized water four times until the well became transparent. When the washed distilled water became transparent, distilled water was removed. Then, 1 ml of 95% ethanol was added with stirring for 20 minutes to dissolve crystal violet from stained cells. […] of the solution was dispensed to a 96-well plate, and absorbance was measured at 590 nm by using ELISA reader. Then, relative cell growth was calculated by using, as a control, a group which was not treated with a material to be tested.

type I collagen = experiment: Type I collagen synthesis by Pal-YIGSR peptide, immunoblotting in Hs27 skin fibroblasts; details: for effect compared with the original YIGSR peptide: collagen I production, summary statement b41
Procedure: Hs27 skin fibroblasts, which are under culture, were treated with the peptide derivatives prepared in Examples 1 and 2, and Comparative Example 2, and an amount of expressed type I collagen in the cells were measured by an immunoblotting method. The Hs27 skin fibroblasts were cultured by using DMEM medium, (Lonza, USA), to which 10% FBS was added (Lonza, USA), under the condition of 95% of humidity, 5% CO2, and 37° C. Hs27 skin fibroblasts were treated with each concentration of the peptide (0, 2, 25, 50 and 100 μM) for 24 hours or 100 μM of the peptide for each period of time (0, 0.5, 6, 12 and 24 hours). Then, the treated cells were sonicated in the lysis buffer (150 mM NaCl, 1% Triton X-100, 10 mM Tris, 1 mM EDTA, pH 7.4). Thereafter, supernatant was isolated through centrifugation, and quantification was performed through Bradford assay. The same amount of a protein was mixed in a 5× sample buffer and the mixture was heated for 5 minutes at 95° C. The resultant was electrophoresed on 6-15% concentration gradient SDS-Polyacrylamide gel electrophoresis (SDS-PAGE) and then adsorbed to a nitrocellulose membrane. Anti-type I collagen primary antibody (Rockland, USA), anti-phospho-ERK primary antibody (Cell signaling, USA), and anti-actin primary antibody (Santa Cruz, USA) were diluted in TBST buffer (Tris buffered saline with 0.05% Tween 20, pH 7.6) including 5% skimmed milk and reacted for 16 hours. Then, the resultant was washed with TBST for 10 minutes 6 times. Then, the membrane was treated with anti-mouse rabbit peroxidase-conjugated secondary antibody (KPL, USA) for reaction for one hour at room temperature, and washed again with TBST 6 times for 10 minutes followed by development with the enhanced chemiluminescent (ECL) solution (Amersham, USA) for evaluation.

[1] = test system: collagen I expression induced by YIGSR peptide; experiment: YIGSR peptide-induced collagen I expression under FAK and MEK inhibitors, western blot; details: Hs27 cells, 1 μM inhibitor with 1 μM YIGSR peptide, 24 hours
Procedure: To evaluate whether collagen I expression induced by YIGSR peptide according to one embodiment of the present invention is mediated by FAK and MAPK or not, FAK and MEK inhibitors were used.
Hs27 cells of Example 3 were cultured in a 24-well plate provided that the cells were cultured in a serum-free state for 24 hours. Then, the cells were treated with 1 μM of the FAK-specific inhibitor, PF573228 (Tocris Bioscience, United Kingdom) for 24 hours.

collagen = experiment: Influence of palmitoyl group: collagen synthesis by RGD and Pal-RGD peptides; details: FIG. 10
Procedure: Then, the treated cells were sonicated in the lysis buffer (150 mM NaCl, 1% Triton X-100, 10 mM Tris, […], pH 7.4). Thereafter, supernatant was isolated through centrifugation, and quantification was performed through Bradford assay. The same amount of a protein was mixed in a 5× sample buffer, and the mixture was heated for 5 minutes at 95° C. The resultant was electrophoresed on 6-15% concentration gradient SDS-polyacrylamide gel electrophoresis (SDS-PAGE), and then adsorbed to a nitrocellulose membrane. An anti-type I collagen primary antibody (Rockland, USA) and anti-actin primary antibody (Santa Cruz, USA) were diluted in TBST buffer (Tris buffered saline with 0.05% Tween 20, pH 7.6) including 5% skimmed milk and reacted for 16 hours. Then, the resultant was washed with TBST for 10 minutes 6 times. Thereafter, the membrane was treated with an anti-mouse rabbit peroxidase-conjugated secondary antibody (KPL, USA) for reaction for one hour at room temperature, and washed again with TBST 6 times for 10 minutes followed by development with the enhanced chemiluminescent (ECL) solution (Amersham, USA) for evaluation. In addition, the western blot image was quantitatively compared with densitometric analysis by using image J program (Ver 1.38, //rsbweb.nih.gov/ij/index.html). […]

Molecule	ERK phosphorylation induction (ERK)	effect compared with the original YIGSR peptide (type I collagen)	effect of inhibitor on collagen I expression induced by YIGSR peptide [1]	collagen synthesis degree versus control (collagen)	further results
Palmitoyl-YIGSR [Pal-YIGSR, peptide derivative in which a palmitoyl group is attached to an N-terminal of the YIGSR peptide]	observed	more potent effect than the YIGSR peptide			cell growth relative to untreated control (Hs27 skin fibroblasts; 100 μM): 13%; cell growth relative to untreated control (Hs27 skin fibroblasts; 500 μM): 23%; concentration range in which cell growth was shown (Hs27 skin fibroblasts): 0.5 to 50 µM; amount of synthesized collagen depending on concentration (type I collagen; 0, 2, 25, 50 and 100 μM, 24 hours): increased as concentration increased; amount of synthesized collagen depending on exposure time (type I collagen; 100 μM, 0, 0.5, 6, 12 and 24 hours): increased as exposure time increased
COc1cccc(-c2cc(=O)c3ccccc3o2)c1N [PD98059]			remarkably inhibited		
CS(=O)(=O)c1cccc(CNc2nc(Nc3ccc4c(c3)CCC(=O)N4)ncc2C(F)(F)F)c1 [PF573228]			remarkably repressed		
Oleyl-YIGSR [YIGSR peptide having an N-terminal, to which an oleyl group is added instead of the palmitoyl group]	rarely affect ERK phosphorylation	no improved activity			degree of collagen synthesis compared with control and Pal-YIGSR (type I collagen; Hs27 skin fibroblasts, FIG. 7): no difference from the control
RGD [RGD peptide]				not significantly different from that of the control	
Pal-RGD [Pal-RGD peptide]				not significantly different from that of the control	

From patent US9999649B2, “Peptide having ability to synthesize collagen and use thereof” (NOVACELL TECHNOLOGY INC., priority 2013, dated 2018)
